Entries after “also recorded” stand apart in the source; their conditions may differ.
Tests used:
Assay type in all cases: cell-based, human
[1] = tested on: hiPSC chondrogenic pellets; assay: Immunohistochemistry of collagens in pellets; settings: pellet culture
Experimental: WNT ligands treatment during chondrogenesis. For WNT ligands treatment during chondrogenesis, pellets were treated with either 10 ng ml^−1 TGF-β3 (control group) or a combination of 10 ng ml^−1 TGF-β3 and 100 ng ml^−1 individual WNT ligand (WNT2B, WNT3A, WNT4, WNT5B, or WNT7B, all from R&D system) in chondrogenic medium from d0 to d42 as appropriate. For WNT ligands treatment during the Cp stage, cells were supplemented with either 20 ng ml^−1 BMP4 (R&D Systems, #314-BP-010) alone (control group), a combination of 20 ng ml^−1 BMP4 and 1 μM WNT-059, or a combination of 20 ng ml^−1 BMP4 and 100 ng ml^−1 WNT3A (R&D Systems, #5036-WN-010) in mesodermal differentiation medium from d7 to d12.
Immunohistochemistry. Histologic sections (8 μm thick) of the pellets were rinsed with xylenes three times and rehydrated before labeling. Antigen retrieval was performed with 0.02% proteinase K for 3 min at 37° C. for COL2A1 and COL6A1 and with pepsin for 5 min at room temperature for COL1A1 and COL10A1 followed by peroxidase quench then serum blocking for 30 min at room temperature. […]

[2] = tested on: hiPSC chondrogenic pellets; assay: Biochemical analysis of cartilaginous matrix production (GAG/DNA) in hiPSC chondrogenic pellets; settings: 1 μM inhibitor + TGF-β3 during pellet culture, d28/d42, vs TGF-β3 or other regimens
Experimental: (§1) Chondrogenic differentiation. Cells dissociated at the Cp stage were resuspended at 5×10^5 cells per mL in chondrogenic medium consisting of DMEM/F-12, 1% FBS, 1% ITS+, 55 μM β-mertcaptoethanol, 100 nM dexamethasone (DEX; Sigma-Aldrich, #D4902), 1% NEAA (Gibco, #11140050), 1% P/S, 10 ng ml^−1 human transforming growth factor-beta 3 (TGF-β3; R&D Systems, #243-B3-010), 50 μg ml^−1 L-ascorbic acid 2-phosphate (ascorbate; Sigma-Aldrich, #A8960), and 40 μg ml^−1 L-Proline (proline; Sigma-Aldrich, #P5607). Cells were then centrifuged for 5 min at 300×g to form a pellet. Chondrogenic pellets were cultured at 37° C. for up to the timepoints required for various experiments.
WNT-C59 and ML329 treatment for WNT and MITF inhibition. For WNT-C59 treatment for WNT inhibition during chondrogenesis, pellets were treated with either 10 ng ml^−1 TGF-β3 (control group) or a combination of 10 ng ml^−1 TGF-β3 and 1 μM WNT-C59 in a chondrogenic medium from d0 to d42 as appropriate. […]
Biochemical analysis of cartilaginous matrix production. […] GAG content, as calculated based on the standard curve, was normalized to double-stranded DNA content to obtain the GAG/DNA ratio.

[3] = tested on: hiPSC chondrogenic pellets; assay: RNA-FISH of d28 pellets for WNT3A, WNT4 and COL2A1; settings: d28 pellets vs TGF-β3-treated
Experimental: RNA fluorescence in situ hybridization (RNA-FISH). […] Pellets were cryo-sectioned at 10 μm thick and fixed using 4% paraformaldehyde in PBS on ice for 10 min. Sample pre-treatment and RNA probe hybridization, amplification, and signal development were performed using the RNAscope Multiplex Fluorescent Reagent Kit v1 (Advanced Cell Diagnostics, #320850) following the manufacturer's instruction. Samples were imaged with multichannel confocal microscopy (Zeiss LSM 880). Tiled images with Z-stacks were taken at 20× magnification to capture the entire pellet. Maximum intensity projection, a process in which the brightest pixel (voxel) in each layer along Z direction is projected in the final 2D image, was performed using Zeiss Zen Blue (version 2.5).

[4] = tested on: hiPSC chondrogenic pellets; assay: Safranin-O histology of hiPSC chondrogenic pellets
Experimental: as §1
WNT-C59 and ML329 treatment for WNT and MITF inhibition. For WNT-C59 treatment for WNT inhibition during chondrogenesis, pellets were treated with either 10 ng ml^−1 TGF-β3 (control group) or a combination of 10 ng ml^−1 TGF-β3 and 1 μM WNT-C59 in a chondrogenic medium from d0 to d42 as appropriate. For WNT-C59 and ML329 treatment (ML, Axon Medchem, HY-101464) for WNT and MITF inhibition during chondrogenesis, pellets were treated with either 10 ng ml^−1 TGF-β3 (control group), a combination of 10 ng ml^−1 TGF-β3 and 1 μM ML, a combination of 10 ng ml^−1 TGF-β3 and 1 μM WNT-C59, or a combination of 10 ng ml^−1 TGF-β3, 1 μM ML and 1 μM WNT-C59 in chondrogenic medium from d0 to d42 as appropriate. […]

Which “COL1A1 and COL10A1 staining/production” value [1] does the source give for `Cc1cc(-c2ccc(CC(=O)Nc3ccc(-c4cccnc4)cc3)cc2)ccn1` [WNT-C59] here?
Its value is “low”.

And the GAG/DNA ratio [2]?
The GAG/DNA ratio was “significantly increased”.

What about the “COL2A1 RNA-FISH labeling” value [3] of the same compound?
The value was “more homogenous distribution; also recorded: increased”.

What about the “WNT3A and WNT4 expression (RNA-FISH)” value [3] of the same compound?
Its value is “decreased”.

What about the “chondrogenesis when WNTs inhibited at the Cp stage” value ([4]; WNT-C59 at Cp stage) of the same compound?
Its value is “severely impaired”.

What about the “chondrocyte homogeneity (Saf-O staining)” value ([4]; treatment during pellet culture, vs standard TGF-β3) of the same compound?
The value was “increased”.

From US20230295571A1, “COMPOSITIONS AND METHODS FOR STEM CELL CHONDROGENESIS” (Washington University, priority 2020, published 2023)
